≈ marks a conversion by molar mass, not a printed value.
What was measured:
Assay in all cases: Antibacterial in vitro activity in comparison with azithromycin (Table 3)
ATCC 10240 = format: cell-based; conditions: Brain hearth Bouillon, 24-48 hours, 37° C., inoculum 10^-5 -10^-6 cfu/mL
From the text: (§1) In Table 3 there are represented in vitro tests of 6-O-methyl- (Ii), 6,11-di-O-methyl- (Ij), 11-O-methyl- (Ik) and 6,11,4"-tri-O-methyl-azithromycin A (II) in comparison with azithromycin.

ATCC 8043 = format: cell-based; conditions: Staphylococcus faecalis, ATCC8043; Brain hearth Bouillon, 24-48 hours, 37° C., inoculum 10^-5 -10^-6 cfu/mL
From the text: as §1

[1] = system: Escherichia coli ATCC 10536; format: cell-based; conditions: ATCC10536, Brain hearth Bouillon, 24-48 hours, 37° C., inoculum 10^-5 -10^-6 cfu/mL
From the text: as §1

[2] = system: Pseudomonas aeruginosa NCTC 10490; format: cell-based; conditions: NCTC10490, Brain hearth Bouillon, 24-48 hours, 37° C., inoculum 10^-5 -10^-6 cfu/mL
From the text: as §1

Sarcina lutea ATCC 9341 = format: cell-based; conditions: Micrococcus luteus, ATCC9341; Brain hearth Bouillon, 24-48 hours, 37° C., inoculum 10^-5 -10^-6 cfu/mL
From the text: as §1

[3] = system: Bacillus pumilus NCTC 8241; format: cell-based; conditions: NCTC8241, Brain hearth Bouillon, 24-48 hours, 37° C., inoculum 10^-5 -10^-6 cfu/mL
From the text: as §1

[4] = system: Bacillus subtilis NCTC 8241; format: cell-based; conditions: Bacillus subtilis, NCTC8241; Brain hearth Bouillon, 24-48 hours, 37° C., inoculum 10^-5 -10^-6 cfu/mL
From the text: as §1

[5] = system: Bacillus cereus NCTC 10320; format: cell-based; conditions: NCTC10320, Brain hearth Bouillon, 24-48 hours, 37° C., inoculum 10^-5 -10^-6 cfu/mL
From the text: as §1

[6] = system: Staphylococcus epidermidis ATCC 12228; format: cell-based; conditions: ATCC12228, Brain hearth Bouillon, 24-48 hours, 37° C., inoculum 10^-5 -10^-6 cfu/mL
From the text: as §1

[7] = system: Corynebacterium xerosis NCTC 9755; format: cell-based; conditions: NCTC9755, Brain hearth Bouillon, 24-48 hours, 37° C., inoculum 10^-5 -10^-6 cfu/mL
From the text: as §1

ATCC 6538P = format: cell-based, Staphilococcus aureus; conditions: Brain hearth Bouillon, 24-48 hours, 37° C., inoculum 10^-5 -10^-6 cfu/mL; read-out: MIC
From the text: as §1

MIC (ATCC 10240) [µg/mL]	MIC (ATCC 8043) [µg/mL]	MIC [1] [µg/mL]	MIC [2] [µg/mL]	MIC (Sarcina lutea ATCC 9341) [µg/mL]	MIC [3] [µg/mL]	MIC [4] [µg/mL]	MIC [5] [µg/mL]	MIC [6] [µg/mL]	MIC [7] [µg/mL]	MIC (ATCC 6538P) [µg/mL]	SMILES
0.78 (≈ 1 µM)	0.78 (≈ 1 µM)	6.25 (≈ 8.04 µM)	100 (≈ 129 µM)	0.05 (≈ 0.0643 µM)	0.78 (≈ 1 µM)	0.78 (≈ 1 µM)	1.56 (≈ 2.01 µM)	1.56 (≈ 2.01 µM)	12.5 (≈ 16.1 µM)	1.56 (≈ 2.01 µM)	CC[C@H]1OC(=O)[C@H](C)[C@@H](O[C@H]2C[C@@](C)(OC)[C@@H](O)[C@H](C)O2)[C@H](C)[C@@H](O[C@@H]2O[C@H](C)C[C@H](N(C)C)[C@H]2O)[C@](C)(OC)C[C@@H](C)CN(C)[C@H](C)[C@@H](OC)[C@]1(C)O [Ij, 6,11-Di-O-Methyl-azithromycin A]
3.12 (≈ 3.95 µM)	0.78 (≈ 0.986 µM)	6.25 (≈ 7.9 µM)	200 (≈ 253 µM)	0.05 (≈ 0.0632 µM)	3.12 (≈ 3.95 µM)	3.12 (≈ 3.95 µM)	3.12 (≈ 3.95 µM)	3.12 (≈ 3.95 µM)	25 (≈ 31.6 µM)	3.12 (≈ 3.95 µM)	CC[C@H]1OC(=O)[C@H](C)[C@@H](O[C@H]2C[C@@](C)(OC)[C@@H](OC)[C@H](C)O2)[C@H](C)[C@@H](O[C@@H]2O[C@H](C)C[C@H](N(C)C)[C@H]2O)[C@](C)(OC)C[C@@H](C)CN(C)[C@H](C)[C@@H](OC)[C@]1(C)O [Il, 6,11,4"Tri-O-Methyl-azithromycin A]

— patent US5250518A, “O-methyl derivatives of azithromycin A” (priority 1990, dated 1993)
